For 19 compounds, Ki and Kd results are on record in ChEMBL document CHEMBL1770056, “2-Arylimidazo[2,1-b]benzothiazoles: a new family of amyloid binding agents with potential for PET and SPECT imaging of Alzheimer's brain” (Bioorg Med Chem Lett, 2011).

Assay [1] is described as follows: Displacement of [3H]BTA-1 from amyloid beta 1 to 40 by competitive binding assay. On the technique in general: In a radioligand displacement assay an active substance lowers the binding of a labelled ligand.
The nature of assay [2]: Binding affinity to amyloid beta 1 to 40.

Compound `Cc1ccc2c(c1)sc1nc(-c3ccc(Br)cc3)cn12` came in with a Ki in assay [1] of 0.026 µM.
For `[11CH3]Nc1ccc(-c2nc3ccc(O)cc3s2)cc1` [PITTSBURGH COMPOUND B], the Ki in assay [1] was determined as 0.011 µM. In addition, the Kd in assay [2] was found to be 0.01 µM.
`COc1ccc2c(c1)sc1nc(-c3ccc([123I])cc3)cn12` showed a Ki in assay [1] of 0.0109 µM.
In assay [1], `CN(C)c1ccc(-c2cn3cc(I)ccc3n2)cc1` showed an inhibition constant (Ki) of […].
On the same count and under the same terms, to `Nc1ccc(-c2cn3c(n2)sc2cc(Br)ccc23)cc1` belongs 0.0288 µM.
On the same count and under the same terms, to `CNc1ccc(-c2nc3ccc(O)cc3s2)cc1` [PITTSBURGH COMPOUND B UNLABELLED] belongs 0.0045 µM.
On to `COc1ccc2c(c1)sc1nc(-c3ccc(Br)cc3)cn12`, for which the affinity in assay [1], expressed as Ki, was 0.0094 µM.
In assay [1], `COc1ccc2c(c1)sc1nc(-c3ccc(N[11CH3])cc3)cn12` gave an inhibition constant (Ki) of 0.00609 µM.
Same read-out and setting: with `Cc1ccc2c(c1)sc1nc(-c3ccc(I)cc3)cn12` the figure was 0.0177 µM.
`CN(C)c1ccc(-c2cn3cc([123I])ccc3n2)cc1` came in with a Ki in assay [1] of […]. In assay [2], this compound gave a Kd of 0.01 µM.
In the case of `Fc1ccc2c(c1)sc1nc(-c3ccc(I)cc3)cn12`, the Ki in assay [1] amounted to 0.0419 µM.
In the case of `COc1ccc2c(c1)sc1nc(-c3ccc(N)cc3)cn12`, the inhibition constant Ki in assay [1] turned out to be 0.0298 µM.
Compound `Brc1ccc2c(c1)sc1nc(-c3ccc(I)cc3)cn12` yielded an inhibition constant (Ki) in assay [1] of 0.0211 µM.
The same measure, in the same setting: to `CNc1ccc(-c2cn3c(n2)sc2cc(Br)ccc23)cc1` belongs 0.0345 µM; to `CNc1ccc(-c2cn3c(n2)sc2cc(F)ccc23)cc1`, 0.0381 µM.
On the same count and under the same terms, with `COc1ccc2c(c1)sc1nc(-c3ccc(N(C)C)cc3)cn12` the figure was 0.0586 µM.
In assay [1], `Nc1ccc(-c2cn3c(n2)sc2cc(F)ccc23)cc1` came in with an inhibitory constant (Ki) of 0.133 µM.
The same measure, in the same setting: to `CN(C)c1ccc(-c2cn3c(n2)sc2cc(Br)ccc23)cc1` belongs 0.0434 µM; to `CN(C)c1ccc(-c2cn3c(n2)sc2cc(F)ccc23)cc1`, 0.0429 µM.

As a reminder, the Ki is a dissociation constant, usually derived from enzyme kinetics or from competition with a known ligand. Higher therefore signals lower affinity. One may read the Kd as a measure of binding affinity in units of concentration.
